Here are results for ten compounds from ChEMBL document CHEMBL1201862, “PubChem BioAssay data set” (2004).

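Cells were grown in 96-well plates and exposed to each compound for 48 hours at five concentrations; endpoints were interpolated linearly between bracketing concentrations, or set to the highest concentration if not reached. Here, GI50 denotes the concentration required for 50% inhibition of growth.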 Activity calls are given as the source filed them. No stated cut-off is given here; in the data, active = GI50 up to about 1.1 µM and inactive = higher.

Test systems include HCT-116; SK-MEL-28; RXF 393; SF-539; OVCAR-8; MDA-MB-231; SNB-19; SN12C; ACHN; EKVX; UACC-257; CCRF-CEM; SK-OV-3; K562; CAKI-1; SF-295; A549; MCF7; NCI-H460; SF-268.
Assay in all cases: NCI-60 cell line screen, 48 h

For the compound `C=C(C(=O)OC)[C@H]1CC/C(C)=C/CC/C(C)=C/CC[C@@]2(C)O[C@@H]2C1`, the GI50 was 15.4 µM (inactive) with HCT-116; 34.6 µM (inactive) in the experiment with SK-MEL-28; 14.9 µM (inactive) in the experiment on RXF 393; 17.9 µM (inactive) in the experiment with SF-539; 13.8 µM (inactive) in the experiment with OVCAR-8; 15.9 µM (inactive) with MDA-MB-231. Besides, the GI50 with SNB-19 is > 100 µM (inactive); in the experiment on SN12C, 16.9 µM (inactive); in the experiment with ACHN, 19.8 µM (inactive); with EKVX, 18.7 µM (inactive); in the experiment with UACC-257 it was 23.8 µM (inactive); in the experiment on CCRF-CEM, 13.1 µM (inactive). Moreover, the GI50 in the experiment with SK-OV-3 was 43.7 µM (inactive); with K562 it was 11.9 µM (inactive); in the experiment on CAKI-1, 13.2 µM (inactive); in the experiment on SF-295, 11.5 µM (inactive); in the experiment on A549, 14.9 µM (inactive); in the experiment with MCF7, 17 µM (inactive).
Consider `Oc1ccc(-c2c3ccccc3c(-c3ccc(OCCBr)cc3)c3ccccc23)cc1`, for which the GI50 was 37.2 µM (inactive) with HCT-116; 27.9 µM (inactive) in the experiment with SK-MEL-28; 24.7 µM (inactive) in the experiment on RXF 393; 13.9 µM (inactive) in the experiment on SF-539; 22 µM (inactive) with OVCAR-8; 23.6 µM (inactive) in the experiment on MDA-MB-231. Besides, the GI50 is 29.4 µM (inactive) in the experiment on SNB-19; 22.1 µM (inactive) in the experiment with SN12C; 29.1 µM (inactive) in the experiment with ACHN; 32.9 µM (inactive) in the experiment with EKVX; 52.6 µM (inactive) with NCI-H460; 24.2 µM (inactive) in the experiment with UACC-257. For the same compound, the GI50 in the experiment on SF-268 was 56.1 µM (inactive); with CCRF-CEM it was 60.1 µM (inactive); with SK-OV-3, 52.7 µM (inactive); in the experiment with K562 it was 42.1 µM (inactive); with CAKI-1, 27.4 µM (inactive); with SF-295 it was 16 µM (inactive). Besides, the GI50 was 28.4 µM (inactive) in the experiment on A549 and 14.4 µM (inactive) in the experiment with MCF7.
On to `Cc1nn2c(=O)c([N+](=O)[O-])c(/C=C/c3ccccc3)nc2s1`, for which the GI50 with HCT-116 was 3.42 µM (inactive); in the experiment with SK-MEL-28, 5.33 µM (inactive); with RXF 393 it was 3.41 µM (inactive); in the experiment on SF-539, 2.3 µM (inactive); in the experiment with OVCAR-8, 2.17 µM (inactive); with MDA-MB-231, 11.5 µM (inactive). The GI50 with SNB-19 was 4.06 µM (inactive); with SN12C, 5.27 µM (inactive); in the experiment with ACHN, 5.32 µM (inactive); in the experiment with EKVX it was 4.61 µM (inactive); in the experiment on NCI-H460, 5.61 µM (inactive); in the experiment with UACC-257 it was 8.57 µM (inactive). Besides, the GI50 in the experiment on SF-268 was 3.92 µM (inactive); with CCRF-CEM it was 2.21 µM (inactive); in the experiment on SK-OV-3 it was 7.33 µM (inactive); with K562, 2.56 µM (inactive); with CAKI-1 it was 7.78 µM (inactive); with SF-295, 17.3 µM (inactive). The GI50 in the experiment with A549 is 5.46 µM (inactive); with MCF7, 1.61 µM (inactive).
As for `O=c1[nH]c2ccc(CC(=S)N3CCN(c4ccccc4)CC3)cc2s1`, the GI50 was 33.9 µM (inactive) in the experiment on HCT-116; > 100 µM (inactive) in the experiment with SK-MEL-28; 18 µM (inactive) in the experiment with RXF 393; 28 µM (inactive) in the experiment on SF-539; 14.3 µM (inactive) in the experiment on OVCAR-8; 21.9 µM (inactive) with MDA-MB-231. In addition, the GI50 was > 100 µM (inactive) in the experiment on SNB-19; 70.6 µM (inactive) with SN12C; 18 µM (inactive) in the experiment with ACHN; 26.5 µM (inactive) in the experiment on EKVX; 13 µM (inactive) in the experiment on NCI-H460; > 100 µM (inactive) in the experiment with UACC-257. The GI50 was 26.1 µM (inactive) in the experiment on SF-268; 68.9 µM (inactive) in the experiment with CCRF-CEM; 15.7 µM (inactive) with SK-OV-3; 48.2 µM (inactive) in the experiment on K562; 77.1 µM (inactive) in the experiment on CAKI-1; 12.9 µM (inactive) in the experiment on SF-295. In addition, the GI50 in the experiment with MCF7 is 92 µM (inactive).
With `Nc1c2cc3ccc2nc2ccc(cc12)OCCOCCOCCOCCOCCOCCO3`, the GI50 in the experiment on HCT-116, with SK-MEL-28, in the experiment with RXF 393, in the experiment with SF-539, in the experiment with OVCAR-8 and in the experiment on MDA-MB-231 was > 10 µM (inactive) in each case. In addition, the GI50 with SNB-19, in the experiment with SN12C, with ACHN, with EKVX, in the experiment on NCI-H460 and with UACC-257 was > 10 µM (inactive) each time. Besides, the GI50 in the experiment with SF-268, in the experiment on CCRF-CEM, in the experiment on SK-OV-3, in the experiment on K562, in the experiment with CAKI-1 and in the experiment with SF-295 was > 10 µM (inactive) each time. In addition, the GI50 in the experiment on A549 and in the experiment with MCF7 was > 10 µM (inactive) each time.
On to `COc1cccc(N2C(=O)C3c4[nH]c5ccccc5c4C4CCCC4C3C2=O)c1` (configuration not stated), for which the GI50 in the experiment on HCT-116 is 2.87 µM (inactive); in the experiment with SK-MEL-28 it was > 10 µM (inactive); with RXF 393, 9.04 µM (inactive); in the experiment with SF-539 it was 7 µM (inactive); in the experiment on OVCAR-8, 3.74 µM (inactive); in the experiment with MDA-MB-231, 2.25 µM (inactive). Besides, the GI50 in the experiment on SNB-19 was 5.81 µM (inactive); with SN12C it was 3.01 µM (inactive); in the experiment with ACHN, 5.93 µM (inactive); with EKVX, > 10 µM (inactive); in the experiment on NCI-H460, 4.26 µM (inactive); in the experiment with UACC-257, > 10 µM (inactive). The GI50 is 9.66 µM (inactive) in the experiment on SF-268; > 10 µM (inactive) with CCRF-CEM; 6.64 µM (inactive) in the experiment on SK-OV-3; > 10 µM (inactive) in the experiment on K562; 7.16 µM (inactive) in the experiment on CAKI-1; > 10 µM (inactive) with SF-295. Also, the GI50 in the experiment with A549 is 4.62 µM (inactive); in the experiment with MCF7, > 10 µM (inactive).
Consider `C=C1C(C)C2C(Cc3ccccc3)NC(=O)C23C(OC(C)=O)/C=C/C(C)(O)CC(C)C/C=C/C3C1O` (configuration not stated), for which the GI50 in the experiment with HCT-116 was 4.53 µM (inactive); in the experiment with SK-MEL-28 it was 3.94 µM (inactive); with RXF 393 it was 0.0394 µM (active); with SF-539, 0.0836 µM (active); in the experiment on OVCAR-8 it was 54.6 µM (inactive); in the experiment on MDA-MB-231, 0.222 µM (active). Moreover, the GI50 is 0.0863 µM (active) in the experiment on SNB-19; 44.3 µM (inactive) in the experiment on SN12C; 0.492 µM (active) in the experiment on ACHN; 1.72 µM (inactive) in the experiment with EKVX; 0.29 µM (active) in the experiment with NCI-H460; 17.1 µM (inactive) in the experiment with UACC-257. Also, the GI50 with SF-268 is 0.519 µM (active); with CCRF-CEM, 1.03 µM (active); with SK-OV-3, 0.242 µM (active); with K562, 23.3 µM (inactive); in the experiment on CAKI-1, 0.0288 µM (active); with SF-295, 0.21 µM (active). The GI50 with A549 is 0.603 µM (active); in the experiment with MCF7 it was 6.56 µM (inactive).
In the case of `COc1ccc2nc3cc([N+](=O)[O-])ccc3c(NNc3ccc(Cl)cc3)c2c1`, the GI50 was 5.07 µM (inactive) with HCT-116; 70 µM (inactive) with SK-MEL-28; > 39.7 µM (inactive) in the experiment on RXF 393; 37.8 µM (inactive) with SF-539; 21.1 µM (inactive) in the experiment with OVCAR-8; 19.6 µM (inactive) in the experiment with MDA-MB-231. The GI50 was 75.7 µM (inactive) in the experiment on SNB-19; 33.1 µM (inactive) in the experiment with SN12C; 32.9 µM (inactive) in the experiment with ACHN; 26.2 µM (inactive) with EKVX; 2.88 µM (inactive) in the experiment with NCI-H460; 1.01 µM (active) in the experiment with UACC-257. In addition, the GI50 in the experiment with SF-268 is 43.5 µM (inactive); with CCRF-CEM it was 22 µM (inactive); in the experiment with SK-OV-3, 80 µM (inactive); in the experiment with K562, 14.8 µM (inactive); in the experiment with CAKI-1 it was 0.16 µM (active); in the experiment on SF-295, 56.8 µM (inactive). Besides, the values for the GI50 in the experiment on A549 and in the experiment with MCF7 were 17.2 µM (inactive) and 11.6 µM (inactive), respectively.
As for `COc1ccc(CCN2COc3ccc4ccc(=O)oc4c3C2)cc1OC`, the GI50 in the experiment on HCT-116 was 66.5 µM (inactive); in the experiment on SK-MEL-28, > 100 µM (inactive); with RXF 393, 85.7 µM (inactive); in the experiment on SF-539, > 100 µM (inactive); with OVCAR-8, > 100 µM (inactive); in the experiment on MDA-MB-231 it was > 100 µM (inactive). In addition, the GI50 in the experiment on SNB-19 was > 100 µM (inactive); in the experiment on SN12C, > 100 µM (inactive); in the experiment on ACHN it was > 100 µM (inactive); in the experiment on EKVX, > 100 µM (inactive); in the experiment with NCI-H460, 66.8 µM (inactive); with UACC-257 it was > 100 µM (inactive). The GI50 with SF-268 is 60.4 µM (inactive); in the experiment on CCRF-CEM it was 23.7 µM (inactive); in the experiment with SK-OV-3, > 100 µM (inactive); in the experiment with K562, 50.4 µM (inactive); in the experiment with CAKI-1, > 100 µM (inactive); in the experiment with SF-295 it was > 100 µM (inactive). Moreover, the values for the GI50 with A549 and in the experiment on MCF7 were > 100 µM (inactive) and 89.5 µM (inactive), respectively.
For `c1cc(-c2ccc(-c3nc4ccc(C5=NCCN5)cc4s3)s2)ccc1C1=NCCN1`, the GI50 was 0.351 µM (active) in the experiment with HCT-116; 1.71 µM (inactive) in the experiment on SK-MEL-28; 0.152 µM (active) in the experiment with RXF 393; 0.296 µM (active) in the experiment with SF-539; 0.296 µM (active) in the experiment with OVCAR-8; 0.234 µM (active) with MDA-MB-231. For the same compound, the GI50 in the experiment on SNB-19 was 0.618 µM (active); in the experiment with SN12C, 0.172 µM (active); in the experiment on ACHN, 0.562 µM (active); in the experiment with EKVX, 1.28 µM (inactive); with NCI-H460, 0.286 µM (active); in the experiment with UACC-257, 22.5 µM (inactive). Moreover, the GI50 was 0.214 µM (active) in the experiment with SF-268; 0.0962 µM (active) in the experiment on CCRF-CEM; 0.711 µM (active) in the experiment on SK-OV-3; 0.82 µM (active) with K562; 1.51 µM (inactive) in the experiment with CAKI-1; 0.301 µM (active) with SF-295. Also, the GI50 in the experiment with A549 is 0.166 µM (active); in the experiment on MCF7 it was 0.0372 µM (active).
